The source of these data is patent publication US9346798B2, “Dihydrobenzoxazine and tetrahydroquinoxaline sodium channel inhibitors” (AMGEN INC., priority 2012, dated 2016).

Each structure is given as a SMILES string.

Assay type in all cases: cell-based
In data set [1] the target is Nav 1.5 (Homo sapiens (Human), UniProt Q14524). Description: Nav 1.5 in vitro assay, IonWorks Quattro (IWQ) population patch-clamp. The conditions noted are these: HEK 293 cells stably transfected with Nav 1.5; 26th pulse to -20 mV. A general note: The patch-clamp technique gives a direct electrical read-out from membranes.
Data set [2] addresses T1, Nav 1.7 (Homo sapiens (Human), UniProt Q15858). In words: Nav 1.7 in vitro assay, IonWorks Quattro (IWQ) population patch-clamp. The conditions noted are these: HEK 293 cells stably transfected with Nav 1.7; 26th pulse to -20 mV.
Data set [3] deals with T1, Nav 1.7. In words: Nav 1.7 in vitro PX assay, PatchXpress whole cell voltage clamp. The conditions noted are these: HEK 293 cells stably transfected with human Nav1.7; for inhibition at 4.9 µM: HEK293, values marked *, read-out: Nav 1.7 PX percent inhibition at 4.9 μM; for IC50: partially inactivated state (20 to 50% inactivation). The essentials: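 HEK293 cells stably expressing human Nav1.7, whole-cell voltage clamp at a holding potential giving 20–50% inactivation; currents elicited by 20 msec pulses to −10 mV at 0.1 Hz.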

Chain of Nav 1.5 (Q14524 whole entry): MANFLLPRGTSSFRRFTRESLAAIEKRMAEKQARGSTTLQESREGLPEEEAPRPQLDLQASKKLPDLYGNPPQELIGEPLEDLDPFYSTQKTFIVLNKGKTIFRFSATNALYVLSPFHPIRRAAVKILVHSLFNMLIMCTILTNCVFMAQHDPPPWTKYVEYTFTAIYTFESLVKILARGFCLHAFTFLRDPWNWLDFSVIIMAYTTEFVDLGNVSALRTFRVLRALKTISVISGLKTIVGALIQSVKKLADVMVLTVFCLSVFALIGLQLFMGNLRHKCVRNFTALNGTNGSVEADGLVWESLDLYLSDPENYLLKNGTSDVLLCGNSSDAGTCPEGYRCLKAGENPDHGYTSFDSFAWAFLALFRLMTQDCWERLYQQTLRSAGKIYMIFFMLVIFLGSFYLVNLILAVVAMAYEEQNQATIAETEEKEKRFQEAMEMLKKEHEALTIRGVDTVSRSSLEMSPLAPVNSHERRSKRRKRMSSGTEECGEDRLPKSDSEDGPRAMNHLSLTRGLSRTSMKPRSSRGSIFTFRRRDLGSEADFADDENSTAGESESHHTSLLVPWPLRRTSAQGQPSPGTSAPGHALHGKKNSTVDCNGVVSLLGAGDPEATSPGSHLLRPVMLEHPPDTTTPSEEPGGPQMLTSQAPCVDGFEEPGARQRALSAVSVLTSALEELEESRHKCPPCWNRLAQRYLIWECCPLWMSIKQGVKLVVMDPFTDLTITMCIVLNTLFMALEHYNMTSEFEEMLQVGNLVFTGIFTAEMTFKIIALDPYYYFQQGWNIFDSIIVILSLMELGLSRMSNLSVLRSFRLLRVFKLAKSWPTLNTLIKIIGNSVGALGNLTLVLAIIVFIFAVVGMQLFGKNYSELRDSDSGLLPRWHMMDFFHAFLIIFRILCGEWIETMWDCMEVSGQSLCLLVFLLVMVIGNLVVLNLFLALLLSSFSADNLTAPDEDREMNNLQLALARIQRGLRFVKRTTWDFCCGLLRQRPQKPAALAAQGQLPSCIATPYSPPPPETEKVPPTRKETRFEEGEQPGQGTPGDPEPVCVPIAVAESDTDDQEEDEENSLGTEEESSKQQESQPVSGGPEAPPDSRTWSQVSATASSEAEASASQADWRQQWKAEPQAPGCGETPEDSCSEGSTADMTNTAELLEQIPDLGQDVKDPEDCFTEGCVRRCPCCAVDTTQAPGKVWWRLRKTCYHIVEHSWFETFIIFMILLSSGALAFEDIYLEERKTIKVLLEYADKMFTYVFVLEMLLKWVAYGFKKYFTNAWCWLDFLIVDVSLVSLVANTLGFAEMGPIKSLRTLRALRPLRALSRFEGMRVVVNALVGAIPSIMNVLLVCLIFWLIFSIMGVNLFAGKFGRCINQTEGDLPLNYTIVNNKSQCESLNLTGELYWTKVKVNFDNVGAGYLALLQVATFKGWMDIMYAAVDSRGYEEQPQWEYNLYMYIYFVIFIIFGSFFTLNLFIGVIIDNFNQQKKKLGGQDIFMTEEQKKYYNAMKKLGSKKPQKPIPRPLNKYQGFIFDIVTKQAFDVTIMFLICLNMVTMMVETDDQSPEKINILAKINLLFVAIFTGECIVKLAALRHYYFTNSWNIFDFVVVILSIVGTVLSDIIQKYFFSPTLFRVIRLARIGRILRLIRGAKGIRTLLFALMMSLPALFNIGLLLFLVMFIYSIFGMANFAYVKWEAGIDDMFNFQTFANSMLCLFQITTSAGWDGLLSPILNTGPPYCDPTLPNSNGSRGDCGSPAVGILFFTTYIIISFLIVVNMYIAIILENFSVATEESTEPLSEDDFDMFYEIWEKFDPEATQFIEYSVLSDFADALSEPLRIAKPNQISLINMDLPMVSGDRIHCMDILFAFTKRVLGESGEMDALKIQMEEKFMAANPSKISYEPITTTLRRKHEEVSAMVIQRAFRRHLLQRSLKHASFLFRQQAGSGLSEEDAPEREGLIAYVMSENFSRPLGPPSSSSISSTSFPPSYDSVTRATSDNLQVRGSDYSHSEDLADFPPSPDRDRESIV
T1 sequence (Q15858 whole entry): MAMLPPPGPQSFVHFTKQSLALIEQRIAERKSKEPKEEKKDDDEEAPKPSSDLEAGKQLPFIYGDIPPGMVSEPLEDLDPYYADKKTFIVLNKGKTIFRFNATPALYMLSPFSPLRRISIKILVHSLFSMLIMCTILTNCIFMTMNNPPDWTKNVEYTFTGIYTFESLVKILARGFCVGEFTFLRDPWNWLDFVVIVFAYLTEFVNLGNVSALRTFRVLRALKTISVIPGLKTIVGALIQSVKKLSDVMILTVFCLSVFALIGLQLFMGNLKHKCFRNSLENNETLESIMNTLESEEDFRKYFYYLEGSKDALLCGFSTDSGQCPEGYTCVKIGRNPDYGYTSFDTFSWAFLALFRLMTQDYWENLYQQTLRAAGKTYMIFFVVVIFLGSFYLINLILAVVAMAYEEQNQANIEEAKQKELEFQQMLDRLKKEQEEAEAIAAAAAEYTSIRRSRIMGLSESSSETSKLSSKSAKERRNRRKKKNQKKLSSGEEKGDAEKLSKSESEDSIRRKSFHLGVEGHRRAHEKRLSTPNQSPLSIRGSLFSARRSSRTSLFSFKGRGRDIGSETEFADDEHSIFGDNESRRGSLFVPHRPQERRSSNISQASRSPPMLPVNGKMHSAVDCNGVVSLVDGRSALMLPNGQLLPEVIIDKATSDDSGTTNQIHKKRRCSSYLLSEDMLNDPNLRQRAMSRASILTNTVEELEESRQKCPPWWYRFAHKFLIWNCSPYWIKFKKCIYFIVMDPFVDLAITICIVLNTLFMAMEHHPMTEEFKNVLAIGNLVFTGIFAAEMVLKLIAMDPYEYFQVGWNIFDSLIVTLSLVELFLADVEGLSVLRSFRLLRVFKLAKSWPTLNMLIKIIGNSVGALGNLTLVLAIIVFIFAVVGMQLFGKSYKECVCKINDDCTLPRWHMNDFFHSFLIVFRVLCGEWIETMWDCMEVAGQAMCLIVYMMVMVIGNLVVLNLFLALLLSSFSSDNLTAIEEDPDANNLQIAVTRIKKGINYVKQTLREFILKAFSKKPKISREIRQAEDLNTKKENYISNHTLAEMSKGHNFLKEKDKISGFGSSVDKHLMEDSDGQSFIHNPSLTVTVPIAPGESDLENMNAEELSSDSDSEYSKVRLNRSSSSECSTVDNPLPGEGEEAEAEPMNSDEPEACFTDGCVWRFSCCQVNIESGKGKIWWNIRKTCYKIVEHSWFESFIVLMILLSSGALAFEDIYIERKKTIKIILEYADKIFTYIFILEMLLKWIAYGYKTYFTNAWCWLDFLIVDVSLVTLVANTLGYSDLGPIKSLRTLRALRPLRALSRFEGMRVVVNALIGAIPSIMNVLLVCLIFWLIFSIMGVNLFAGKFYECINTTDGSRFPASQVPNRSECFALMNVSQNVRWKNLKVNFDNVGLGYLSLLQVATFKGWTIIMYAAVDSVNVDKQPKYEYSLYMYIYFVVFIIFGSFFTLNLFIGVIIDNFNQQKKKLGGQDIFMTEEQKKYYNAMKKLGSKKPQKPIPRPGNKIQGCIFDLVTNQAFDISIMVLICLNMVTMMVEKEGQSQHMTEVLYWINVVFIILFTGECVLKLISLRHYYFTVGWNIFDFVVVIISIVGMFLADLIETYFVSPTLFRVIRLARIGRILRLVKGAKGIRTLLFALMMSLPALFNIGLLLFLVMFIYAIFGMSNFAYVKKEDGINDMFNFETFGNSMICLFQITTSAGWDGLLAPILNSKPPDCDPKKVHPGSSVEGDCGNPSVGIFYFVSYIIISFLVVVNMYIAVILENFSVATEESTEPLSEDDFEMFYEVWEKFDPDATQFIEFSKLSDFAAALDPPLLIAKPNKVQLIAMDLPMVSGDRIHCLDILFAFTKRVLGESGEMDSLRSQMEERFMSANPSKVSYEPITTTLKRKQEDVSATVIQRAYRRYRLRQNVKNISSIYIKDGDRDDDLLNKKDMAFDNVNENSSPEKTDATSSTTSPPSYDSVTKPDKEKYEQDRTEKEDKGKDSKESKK

A word on the IC50: it is the concentration needed to halve the response being measured. A low value points to inhibition by little substance. The term inhibition denotes the change of the read-out against control, counted positive when it falls. Take `O=S(=O)(Nc1ccccn1)c1ccc2c(c1)OCCN2c1ccc(C(F)(F)F)cc1Br` [Example 60, 4-(2-Bromo-4-(Trifluoromethyl)Phenyl)-N-(Pyridin-2-Yl)-3,4-Dihydro-2H-Benzo[B][1,4]Oxazine-7-Sulfonamide]: the IC50 was > 10 µM in data set [1] and 1.47 µM in data set [2]. Further, the inhibition at 4.9 µM in data set [3] came to 24.4%.

`O=S(=O)(Nc1cscn1)c1ccc2c(c1)OCCN2c1ccc(C(F)(F)F)cc1Br` [Example 61, 4-(2-Bromo-4-(Trifluoromethyl)Phenyl)-N-(Thiazol-4-Yl)-3,4-Dihydro-2H-Benzo[B][1,4]Oxazine-7-Sulfonamide]: the IC50 is > 10 µM in data set [1], 0.679 µM in data set [2] and 2.43 µM in data set [3].

As for `O=S(=O)(Nc1ccccn1)c1ccc2c(c1)OCCN2c1ccc(C(F)(F)F)cc1C1=CCNCC1` [Example 62, N-(Pyridin-2-Yl)-4-(2-(1,2,3,6-Tetrahydropyridin-4-Yl)-4-(Trifluoromethyl)Phenyl)-3,4-Dihydro-2H-Benzo[B][1,4]Oxazine-7-Sulfonamide], the IC50 in data set [1] was > 10 µM; in data set [2], 0.049 µM; in data set [3] it was 0.282 µM.

For `O=S(=O)(Nc1cscn1)c1ccc2c(c1)OCCN2c1ccc(C(F)(F)F)cc1C1=CCNCC1` [Example 63, 4-(2-(1,2,3,6-Tetrahydropyridin-4-Yl)-4-(Trifluoromethyl)Phenyl)-N-(Thiazol-4-Yl)-3,4-Dihydro-2H-Benzo[B][1,4]Oxazine-7-Sulfonamide], the IC50 was 2.67 µM in data set [1], 0.027 µM in data set [2] and 0.144 µM in data set [3].

In the case of `[N-]=[N+]=Nc1ccc(N2CCOc3cc(S(=O)(=O)Nc4nccs4)ccc32)c(Br)c1` [Example 64, 4-(4-Azido-2-Bromophenyl)-N-(Thiazol-2-Yl)-3,4-Dihydro-2H-Benzo[B][1,4]Oxazine-7-Sulfonamide 2,2,2-Trifluoroacetate], the half-maximal inhibitory concentration (IC50) was > 10 µM in data set [1], 0.418 µM in data set [2] and 1.07 µM in data set [3].

Regarding `[N-]=[N+]=Nc1ccc(N2CCOc3cc(S(=O)(=O)Nc4nccs4)ccc32)c(C2=CCNCC2)c1` [Example 65, 4-(4-Azido-2-(1,2,3,6-Tetrahydropyridin-4-Yl)Phenyl)-N-(Thiazol-2-Yl)-3,4-Dihydro-2H-Benzo[B][1,4]Oxazine-7-Sulfonamide Bis(2,2,2-Trifluoroacetate)], the IC50 worked out at 5.28 µM in data set [1], 0.024 µM in data set [2] and 0.0244 µM in data set [3].

On to `O=S(=O)(Nc1nccs1)c1ccc2c(c1)OCCN2c1ccc2ncccc2c1` [Example 66, 4-(Quinolin-6-Yl)-N-(Thiazol-2-Yl)-3,4-Dihydro-2H-Benzo[B][1,4]Oxazine-7-Sulfonamide 2,2,2-Trifluoroacetate], for which the IC50 in data set [1] was > 10 µM; in data set [2], 3.73 µM. Also, the inhibition at 4.9 µM in data set [3] was 22.8%.

With `Cc1ccc(Cl)c(N2CCOc3cc(S(=O)(=O)Nc4nccs4)ccc32)c1` [Example 67, 4-(2-Chloro-5-Methylphenyl)-N-(Thiazol-2-Yl)-3,4-Dihydro-2H-Benzo[B][1,4]Oxazine-7-Sulfonamide 2,2,2-Trifluoroacetate], the IC50 was determined as 5.33 µM in data set [1], 0.381 µM in data set [2] and 0.442 µM in data set [3].

Take `O=S(=O)(Nc1nccs1)c1ccc2c(c1)OCCN2c1cccc2ccncc12` [Example 68, 4-(Isoquinolin-8-Yl)-N-(Thiazol-2-Yl)-3,4-Dihydro-2H-Benzo[B][1,4]Oxazine-7-Sulfonamide 2,2,2-Trifluoroacetate]: the IC50 in data set [1] amounted to 4.83 µM; in data set [2], 0.158 µM; in data set [3], 1.75 µM.

As for `O=S(=O)(Nc1nccs1)c1ccc2c(c1)OCCN2c1ccc2nccnc2c1` [Example 69, 4-(Quinoxalin-6-Yl)-N-(Thiazol-2-Yl)-3,4-Dihydro-2H-Benzo[B][1,4]Oxazine-7-Sulfonamide 2,2,2-Trifluoroacetate], the half-inhibitory concentration (IC50) was 4.44 µM in data set [1] and 3.78 µM in data set [2]. For the same compound, the inhibition at 4.9 µM in data set [3] was found to be 33.9%.
